According to patent US6479435B1, “Diaryl ethers and processes for their preparation and herbicidal and desiccant compositions containing them” (ISK Americas Incorporated, priority 1997, dated 2002):

Key:
Format in all cases: in vivo
[1] = test system: upland rice (Oryza sp., var.Tebonnet, RICE); assay: Post-emerge greenhouse test, crop damage rating; details: 14 days after application
Summary of the method: (§1)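 Scores use a 0 (no damage) to 100 (complete kill) scale, taken 14 days after a foliar spray. Acetone solutions with 0.25% v/v non-ionic surfactant were applied by track sprayer at 187 l/ha and 63-1000 g ai/ha to bottom-watered 2-3 leaf plants.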

[2] = test system: field corn (Zea mays L., var. Dekalb 535, CORN); assay: Post-emerge greenhouse test, crop damage rating; details: 14 days after application
Summary of the method: as §1

[3] = test system: upland rice (Oryza sp., var.Tebonnet, RICE); assay: Pre-emerge greenhouse test, crop damage rating; details: 14 days after application, rating scale 0-100
Summary of the method: (§2)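 Visual 0–100 injury rating (100 = all plants dead) taken 14 days after treatment. Rates of 125–1000 g ai/ha in acetone, 187 l/ha, were sprayed onto soil one day post-sowing; pots were surface-watered to incorporate, then bottom-watered.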

[4] = test system: field corn (Zea mays L., var. Dekalb 535, CORN); assay: Pre-emerge greenhouse test, crop damage rating; details: 14 days after application, rating scale 0-100
Summary of the method: as §2

[5] = test system: soybean (Glycine max L., var. Pella 86, SOY); assay: Post-emerge greenhouse test, crop damage rating; details: 14 days after application
Summary of the method: as §1

[6] = test system: soybean (Glycine max L., var. Pella 86, SOY); assay: Pre-emerge greenhouse test, crop damage rating; details: 14 days after application, rating scale 0-100
Summary of the method: as §2

[7] = test system: common ragweed (Ambrosia artemisiifolia L., AMBEL); assay: Post-emerge greenhouse herbicide test, phytotoxicity rating; details: 14 days after application
Summary of the method: as §1

[8] = test system: lambsquarters (Chenopodium album, CHEAL); assay: as above; details: 14 days after application
Summary of the method: as §1

[9] = test system: Johnsongrass (Sorghum halepense, SORHA); assay: as above; details: 14 days after application
Summary of the method: as §1

[10] = test system: ivyleaf morningglory (Ipomoea hederacea, IPOHE); assay: as above; details: 14 days after application
Summary of the method: as §1

[11] = test system: velvetleaf (Abutilon theophrasti, ABUTH); assay: as above; details: 14 days after application
Summary of the method: as §1

[12] = test system: redroot pigweed (Amaranthus retroflexus, AMARE); assay: as above; details: 14 days after application
Summary of the method: as §1

[13] = test system: green foxtail (Setaria viridis, SETVI); assay: as above; details: 14 days after application
Summary of the method: as §1

[14] = test system: large crabgrass (Digitaria sanguinalis, DIGSA); assay: as above; details: 14 days after application
Summary of the method: as §1

[15] = test system: sicklepod (Cassia obtusifolia, CASOB); assay: as above; details: 14 days after application
Summary of the method: as §1

[16] = test system: barnyardgrass (Echinochloa crusgalli, ECHCG); assay: as above; details: 14 days after application
Summary of the method: as §1

[17] = test system: lambsquarters (Chenopodium album, CHEAL); assay: Pre-emerge greenhouse herbicide test, phytotoxicity rating; details: 14 days after application, rating scale 0-100
Summary of the method: as §2

[18] = test system: common ragweed (Ambrosia artemisiifolia L., AMBEL); assay: as above; details: 14 days after application, rating scale 0-100
Summary of the method: as §2

[19] = test system: Johnsongrass (Sorghum halepense, SORHA); assay: as above; details: 14 days after application, rating scale 0-100
Summary of the method: as §2

[20] = test system: ivyleaf morningglory (Ipomoea hederacea, IPOHE); assay: as above; details: 14 days after application, rating scale 0-100
Summary of the method: as §2

[21] = test system: velvetleaf (Abutilon theophrasti, ABUTH); assay: as above; details: 14 days after application, rating scale 0-100
Summary of the method: as §2

[22] = test system: redroot pigweed (Amaranthus retroflexus, AMARE); assay: as above; details: 14 days after application, rating scale 0-100
Summary of the method: as §2

[23] = test system: green foxtail (Setaria viridis, SETVI); assay: as above; details: 14 days after application, rating scale 0-100
Summary of the method: as §2

[24] = test system: large crabgrass (Digitaria sanguinalis, DIGSA); assay: as above; details: 14 days after application, rating scale 0-100
Summary of the method: as §2

[25] = test system: sicklepod (Cassia obtusifolia, CASOB); assay: as above; details: 14 days after application, rating scale 0-100
Summary of the method: as §2

[26] = test system: barnyardgrass (Echinochloa crusgalli, ECHCG); assay: as above; details: 14 days after application, rating scale 0-100
Summary of the method: as §2

Structure (SMILES): Cc1nn(-c2cc(Oc3ncccn3)c(Cl)cc2F)c(=O)n1C(F)F [Compound 3-1, 1-[4-chloro-2-fluoro-5-(2-pyrimidyloxy)phenyl]-4-difluoromethyl-3-methyl-1,4-dihydro-1,2,4-triazolin-5-one]
- RICE crop damage rating (0-100) ([1]; 63 g al/ha): 70
- RICE crop damage rating (0-100) ([1]; 500 g al/ha): 100
- CORN crop damage rating (0-100) ([2]; 63 g al/ha): 25
- CORN crop damage rating (0-100) ([2]; 500 g al/ha): 100
- crop damage rating RICE ([3]; 125 g ai/ha): 99
- crop damage rating RICE ([3]; 500 g ai/ha): 100
- crop damage rating CORN ([4]; 125 g ai/ha): 90
- crop damage rating CORN ([4]; 500 g ai/ha): 100
- SOY crop damage rating (0-100) ([5]; 63 g al/ha): 100
- SOY crop damage rating (0-100) ([5]; 500 g al/ha): 100
- crop damage rating SOY ([6]; 125 g ai/ha): 90
- crop damage rating SOY ([6]; 500 g ai/ha): 100
- AMBEL phytotoxicity rating (0-100) ([7]; 63 g al/ha): 70
- AMBEL phytotoxicity rating (0-100) ([7]; 500 g al/ha): 100
- CHEAL phytotoxicity rating (0-100) ([8]; 63 g al/ha): 95
- CHEAL phytotoxicity rating (0-100) ([8]; 500 g al/ha): 100
- SORHA phytotoxicity rating (0-100) ([9]; 63 g al/ha): 80
- SORHA phytotoxicity rating (0-100) ([9]; 500 g al/ha): 100
- IPOHE phytotoxicity rating (0-100) ([10]; 63 g al/ha): 100
- IPOHE phytotoxicity rating (0-100) ([10]; 500 g al/ha): 100
- ABUTH phytotoxicity rating (0-100) ([11]; 63 g al/ha): 100
- ABUTH phytotoxicity rating (0-100) ([11]; 500 g al/ha): 100
- AMARE phytotoxicity rating (0-100) ([12]; 63 g al/ha): 95
- AMARE phytotoxicity rating (0-100) ([12]; 500 g al/ha): 100
- SETVI phytotoxicity rating (0-100) ([13]; 63 g al/ha): 95
- SETVI phytotoxicity rating (0-100) ([13]; 500 g al/ha): 100
- DIGSA phytotoxicity rating (0-100) ([14]; 63 g al/ha): 80
- DIGSA phytotoxicity rating (0-100) ([14]; 500 g al/ha): 100
- CASOB phytotoxicity rating (0-100) ([15]; 63 g al/ha): 90
- CASOB phytotoxicity rating (0-100) ([15]; 500 g al/ha): 100
- ECHCG phytotoxicity rating (0-100) ([16]; 63 g al/ha): 70
- ECHCG phytotoxicity rating (0-100) ([16]; 500 g al/ha): 100
- phytotoxicity rating CHEAL ([17]; 125 g ai/ha): 100
- phytotoxicity rating CHEAL ([17]; 500 g ai/ha): 100
- phytotoxicity rating AMBEL ([18]; 125 g ai/ha): 100
- phytotoxicity rating AMBEL ([18]; 500 g ai/ha): 100
- phytotoxicity rating SORHA ([19]; 125 g ai/ha): 100
- phytotoxicity rating SORHA ([19]; 500 g ai/ha): 100
- phytotoxicity rating IPOHE ([20]; 125 g ai/ha): 100
- phytotoxicity rating IPOHE ([20]; 500 g ai/ha): 100
- phytotoxicity rating ABUTH ([21]; 125 g ai/ha): 100
- phytotoxicity rating ABUTH ([21]; 500 g ai/ha): 100
- phytotoxicity rating AMARE ([22]; 125 g ai/ha): 100
- phytotoxicity rating AMARE ([22]; 500 g ai/ha): 100
- phytotoxicity rating SETVI ([23]; 125 g ai/ha): 100
- phytotoxicity rating SETVI ([23]; 500 g ai/ha): 100
- phytotoxicity rating DIGSA ([24]; 125 g ai/ha): 100
- phytotoxicity rating DIGSA ([24]; 500 g ai/ha): 100
- phytotoxicity rating CASOB ([25]; 125 g ai/ha): 100
- phytotoxicity rating CASOB ([25]; 500 g ai/ha): 100
- phytotoxicity rating ECHCG ([26]; 125 g ai/ha): 100
- phytotoxicity rating ECHCG ([26]; 500 g ai/ha): 100

Structure (SMILES): O=C1C2=CCCCN2C(=O)N1c1cc(Oc2ncccc2C(F)(F)F)c(Cl)cc1F [Compound 4-2]
- RICE crop damage rating (0-100) ([1]; 500 g al/ha): 10
- CORN crop damage rating (0-100) ([2]; 500 g al/ha): 5
- crop damage rating RICE ([3]; 500 g ai/ha): 0
- crop damage rating CORN ([4]; 500 g ai/ha): 0
- SOY crop damage rating (0-100) ([5]; 500 g al/ha): 30
- crop damage rating SOY ([6]; 500 g ai/ha): 0
- AMBEL phytotoxicity rating (0-100) ([7]; 500 g al/ha): 75
- CHEAL phytotoxicity rating (0-100) ([8]; 500 g al/ha): 90
- SORHA phytotoxicity rating (0-100) ([9]; 500 g al/ha): 0
- IPOHE phytotoxicity rating (0-100) ([10]; 500 g al/ha): 99
- ABUTH phytotoxicity rating (0-100) ([11]; 500 g al/ha): 70
- AMARE phytotoxicity rating (0-100) ([12]; 500 g al/ha): 100
- SETVI phytotoxicity rating (0-100) ([13]; 500 g al/ha): 10
- DIGSA phytotoxicity rating (0-100) ([14]; 500 g al/ha): 0
- CASOB phytotoxicity rating (0-100) ([15]; 500 g al/ha): 20
- ECHCG phytotoxicity rating (0-100) ([16]; 500 g al/ha): 0
- phytotoxicity rating CHEAL ([17]; 500 g ai/ha): 100
- phytotoxicity rating AMBEL ([18]; 500 g ai/ha): 100
- phytotoxicity rating SORHA ([19]; 500 g ai/ha): 0
- phytotoxicity rating IPOHE ([20]; 500 g ai/ha): 0
- phytotoxicity rating ABUTH ([21]; 500 g ai/ha): 95
- phytotoxicity rating AMARE ([22]; 500 g ai/ha): 100
- phytotoxicity rating SETVI ([23]; 500 g ai/ha): 40
- phytotoxicity rating DIGSA ([24]; 500 g ai/ha): 0
- phytotoxicity rating CASOB ([25]; 500 g ai/ha): 0
- phytotoxicity rating ECHCG ([26]; 500 g ai/ha): 0
